Laboratory results: patent US8833306B2, “PACAP for aquatic organism culture” (priority 2005, dated 2014)
No end group written: not given here.

Key:
[1] = system: tilapia Oreochromis niloticus; experiment: Effect of recombinant PACAP on juvenile tilapia appetite (ingested food); type: in vivo; settings: i.p. 0.1 μg/g; 6 hours and 22 hours; p<0.05
Procedure: To analyze the effect of the PACAP in the fish appetite, we used tilapia of the Oreochromis niloticus species, without sex distinction and approximately the same average body weight. Three experimental groups were formed having 3 individuals in each and 3 replicates per group. The groups were acclimated in separated tanks with stable water recirculation, to a temperature of 28° C. and with the photoperiod of 14 hours light and 10 hours dark. […] The second group was treated with the GHRP-6 (Lipotec, S.A, Spain) by the same administration via at the dose of 0.1 μg of the peptide by gram of the animal corporal weight. The control group was treated with E. coli proteins contained in PBS 1× (E. coli proteins were obtained by the same purification procedure of the interest peptide, with the amount equivalent of the contaminants presents in the purified PACAP sample). After the treatments, the same amount of food was added to the three experimental groups, collecting the non ingested food in 6 hour and adding food again. The appetite was measured again, 22 hours from the beginning of the experiment. The food not ingested in each tank was dried in the stove (100° C., during 24 h) and was weighed in an analytical balance. The ingested food was calculated determining the difference between the food added to the tanks (10 grams, with a 20% of humidity) and the food not ingested by the fish.

[2] = system: juvenile Clarias gariepinus; experiment: Growth stimulation in Clarias gariepinus by recombinant PACAP in the fish diet; type: in vivo; settings: in the diet at 5 mg/Kg of feed; 30 days; p<0.01
Procedure: The Pichia pastoris culture supernatant containing the recombinant PACAP (SEQ ID No. 14) was concentrated and formulated in the nutritional fish diet to a concentration of approximately 5 mg/Kg of feed. Two experimental groups were formed having 100 larvae in each with an average body weight of 0.1 g. One group was treated with recombinant PACAP (SEQ ID No. 14) containing in P. pastoris culture supernatants and the other used as a control group was treated with non-transformed P. pastoris culture supernatant. The experiment was carried out during 30 days.

Substance | appetite (ingested food) compared with control group [1] | growth increase compared with control group [2]
GHRP-6 | significant appetite increase | –
PACAP (SEQ ID No. 14): Clarias gariepinus recombinant PACAP variant contained in P. pastoris culture supernatants; used in Examples 6-8 (HSDGIFTDSYSRYRKQMAVKKYLAAVLGRRYRQRFRNK; ends and bridges not checked; listed as Clarias gariepinus) | – | 30%
